Results on 16 compounds are retold here after patent US9732075B2, “Benzimidazole-proline derivatives” (IDORSIA PHARMACEUTICALS LTD, priority 2012, dated 2017).

The structures appear in SMILES notation.

Data set [1] deals with rodents. As to conditions: repeated amphetamine administration; cited from earlier work.
The subject of data set [2] is rodents. Conditions: cited from earlier work.
Data set [3] has as its system rat. Conditions: cited from earlier work.
Data set [4] has as its system rats. Conditions: rats treated with the compound; cited from earlier work.
The subject of data set [5] is rat. Conditions: cited from earlier work. This is another data set of the same source.
Data set [6] deals with humans. Conditions: cited from earlier work.
Data set [7] deals with mouse. As to conditions: administered chronically; cited from earlier work.
In data set [8] the test system is rat. As to conditions: cited from earlier work. This is another data set of the same source.
Data set [9] deals with rats. Conditions: fasted hungry rats exposed to food odors; cited from earlier work.
Data set [10] has as its system amyloid precursor protein transgenic mice. As to conditions: after acute sleep restriction; cited from earlier work.
Data set [11] has as its system rats. As to conditions: cited from earlier work.
Data set [12] is described as follows: Measurement of brain and systemic concentration after oral administration. The class given is in vivo. As to conditions: 3 h after oral administration (100 mg/kg), male wistar rats, n=3. How it is done:
Measurement of Brain and Systemic Concentration after Oral Administration:
In order to assess brain penetration, the concentration of the compound is measured in plasma ([P]), and brain ([B]), sampled 3 h (or at different time points) following oral administration (e.g. 100 mg/kg) to male wistar rats. The compounds are formulated e.g. in 100% PEG 400. Samples are collected in the same animal at the same time point (+/−5 min).
Blood is sampled from the vena cava caudalis into containers with EDTA as anticoagulant and centrifuged to yield plasma. Brain is sampled after cardiac perfusion of 10 mL NaCl 0.9% and homogenized into one volume of cold phosphate buffer (pH 7.4). All samples are extracted with MeOH and analyzed by LC-MS/MS. Concentrations are determined with the help of calibration curves.

Data set [13] concerns the target human orexin-1 receptor (Homo sapiens (Human), UniProt O43613). Put plainly: In vitro assay: intracellular calcium measurements (FLIPR), antagonistic activity. The class given is cell-based. As to conditions: CHO cells expressing human orexin-1 receptor, orexin-A agonist, geometric mean, read-out: IC50 Ox1. In outline: (§1)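 Dye-loaded CHO cells expressing either human orexin receptor are exposed to test antagonist for 120 min, then stimulated with orexin-A at 3 nM.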

In data set [14] the target is human orexin-2 receptor (Homo sapiens (Human), UniProt O43614). Described as above. The class given is cell-based. As to conditions: CHO cells expressing human orexin-2 receptor, orexin-A agonist, geometric mean, read-out: IC50 Ox2. The method in brief:
as §1

Data set [15] concerns Wistar rats. As to the kind of experiment: Sedative effects: EEG, EMG and behavioural indices of alertness recorded by radiotelemetry in vivo. As to conditions: 30 mg/kg po; effects analyzed over 6 hours; compared to vehicle controls. As for the experimental part:
Sedative Effects: EEG, EMG and Behavioural Indices of Alertness Recorded by Radiotelemetry In Vivo in Wistar Rats.
Electroencephalography (EEG) and Electromyography (EMG) signals were measured by telemetry using TL11M2-F20-EET miniature radiotelemetric implants (Data Science Int.) with two pairs of differential leads.
Surgical implantation was performed under general anesthesia with Ketamin/Xylazin, for cranial placement of one differential pair of EEG electrodes and one pair of EMG leads inserted in either side of the muscles of the neck. After surgery, rats recovered in a thermoregulated chamber and received analgesic treatment with subcutaneous buprenorphine twice a day for 2 d. They were then housed individually and allowed to recover for a minimum of 2 weeks. Thereafter, rats—in their home cage—were placed in a ventilated sound-attenuating box, on a 12-h light/12-h dark cycle, for acclimatization before continuous EEG/EMG recordings started. The telemetric technology that we used in this study allows accurate and stress-free acquisition of biosignals in rats placed in their familiar home cage environment, with no recording leads restricting their movements. Variables analyzed included four different stages of vigilance and sleep, spontaneous activity in the home cage and body temperature. Sleep and wake stages were evaluated using a rodent scoring software (Somnologica Science) directly processing electrical biosignals on 10 s contiguous epochs. The scoring is based on frequency estimation for EEG and amplitude discrimination for EMG and locomotor activity. Using these measurements, the software determines the probability that all components within each epoch best represent active waking (AW), quiet waking (QW), non-REM-sleep (NREM) or REM-sleep (REM). The percentage of total time spent in AW, QW, NREM- and REM-sleep was calculated per 12 h light or dark period. The latency to the onset of the first significant NREM- and REM-sleep episodes and the frequency and duration of those episodes were also calculated. AW, QW, NREM- and REM-sleep, home cage activity and body temperature were measured at baseline for at least one total circadian cycle (12 h-night, 12 h-day) before a test compound was administered. […] All variables were subsequently recorded for 12 h following administration of the orexin receptor antagonist.

human orexin-2 receptor, sequence (O43614 whole entry): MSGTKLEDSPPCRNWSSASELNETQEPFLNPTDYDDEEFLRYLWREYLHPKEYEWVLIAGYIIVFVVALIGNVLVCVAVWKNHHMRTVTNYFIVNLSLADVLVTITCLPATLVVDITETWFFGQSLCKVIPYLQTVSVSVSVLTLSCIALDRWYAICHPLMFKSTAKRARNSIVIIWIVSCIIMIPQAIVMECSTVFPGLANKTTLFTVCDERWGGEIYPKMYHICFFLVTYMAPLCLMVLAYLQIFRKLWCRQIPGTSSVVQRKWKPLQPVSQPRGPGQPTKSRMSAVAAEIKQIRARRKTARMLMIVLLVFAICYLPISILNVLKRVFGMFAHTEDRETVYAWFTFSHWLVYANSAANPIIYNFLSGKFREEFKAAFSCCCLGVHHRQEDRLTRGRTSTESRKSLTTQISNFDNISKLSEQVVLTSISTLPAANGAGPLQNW
human orexin-1 receptor, sequence (O43613 whole entry): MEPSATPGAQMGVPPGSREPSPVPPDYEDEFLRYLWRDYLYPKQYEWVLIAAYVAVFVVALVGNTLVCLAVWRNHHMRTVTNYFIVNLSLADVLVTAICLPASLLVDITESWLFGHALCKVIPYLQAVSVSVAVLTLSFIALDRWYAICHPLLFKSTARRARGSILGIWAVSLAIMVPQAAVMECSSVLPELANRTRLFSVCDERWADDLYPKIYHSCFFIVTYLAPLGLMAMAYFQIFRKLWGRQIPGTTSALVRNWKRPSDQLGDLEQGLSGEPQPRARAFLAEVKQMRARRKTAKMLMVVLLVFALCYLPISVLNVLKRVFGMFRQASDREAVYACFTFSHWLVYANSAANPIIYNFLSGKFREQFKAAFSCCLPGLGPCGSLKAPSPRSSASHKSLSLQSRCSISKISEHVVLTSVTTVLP

Take `Cn1c(SCC(=O)N2CCC[C@H]2C(=O)Nc2ccccc2-c2ccccc2)nc2ccccc21` [N-biphenyl-2-yl-1-{[(1-methyl-1H-benzimidazol-2-yl)sulfanyl]acetyl}-L-prolinamide]: the “behavioral (locomotor sensitization) and molecular (transcriptional responses) changes” value in [1] is on record as “reduced”. For the same compound, the “nicotine-reinstatement for a conditioned reinforcer” value in [2] was “inhibited”.
Consider `CNC(=O)[C@@H](c1ccccc1)N1CCc2cc(OC)c(OC)cc2[C@@H]1CCc1ccc(C(F)(F)F)cc1` [(2R)-2-{(1S)-6,7-dimethoxy-1-[2-(4-trifluoromethyl-phenyl)-ethyl]-3,4-dihydro-1H-isoquinolin-2-yl}-N-methyl-2-phenyl-acetamide], for which the “pharmacological activity in nicotine self-administration” value in data set [3] is “displayed pharmacological activity”. In data set [4], the learning and memory entry is “intact declarative and non-declarative learning and memory”. The “activity in fear-potentiated startle paradigm” value in [5] is recorded as “active”. Also, in data set [6], the “clinical efficacy in primary insomnia” value is “showed clinical efficacy”. The antidepressant-like activity result in [7] is given as “induce antidepressant-like activity”. Also, in [8], the “alertness (active wake and locomotion)” value is recorded as “decrease alertness”; the “time spent in both REM and NREM sleep” value is given as “dose-dependently increase”. Besides, the “natural activation induced by orexin A” value in data set [9] is “attenuate”. Further, the “brain levels of amyloid-beta and Aβ plaque deposition” value in [10] was “decreased”. For the same compound, in data set [11], the “cardiovascular responses to conditioned fear and novelty exposure” value is on record as “attenuated”.
Consider `Cc1ccc(-c2ncccn2)c(C(=O)N2CCC[C@@]2(C)c2nc3cc(Br)cc(C)c3[nH]2)c1` [Example 5.277], for which, in data set [12], the “concentration of the compound in brain [B]” value (shortened to “concentration … [B]”) was found to be 5880 ng/g and the “concentration of the compound in plasma [P]” value (shortened to “concentration … [P]”) was 3560 ng/mL. The IC50 in [13] amounted to 6 nM. In data set [14], the half-maximal inhibitory concentration (IC50) came out at 21 nM. In data set [15], the “effect on NREM sleep” value is “+21%”, the “effect on REM sleep” value is listed as “+52%”, the “effect on active wake” value is recorded as −22% and the “effect on home cage activity” value is reported as −42%.
Take `Cc1ccc(-n2nccn2)c(C(=O)N2CCC[C@@]2(C)c2nc3cc(Br)cc(C)c3[nH]2)c1` [Example 5.19]: in data set [12], the “concentration … [B]” value came out at 3880 ng/g and the “concentration … [P]” value came out at 2095 ng/mL. Moreover, in data set [13], the half-maximal inhibitory concentration (IC50) was determined as 9 nM. Also, the IC50 in [14] is 20 nM. Moreover, in data set [15], the “effect on NREM sleep” value was “+31%”, the “effect on REM sleep” value was “+69%”, the “effect on active wake” value is listed as −28% and the “effect on home cage activity” value is recorded as −46%.
Take `COc1ccc(-n2nccn2)c(C(=O)N2CCC[C@@]2(C)c2nc3c(C)c(Cl)ccc3[nH]2)c1` [Example 5.36]: in data set [12], the “concentration … [B]” value is recorded as 1808 ng/g and the “concentration … [P]” value is 1280 ng/mL. Further, in data set [15], the “effect on NREM sleep” value is “+27%”, the “effect on REM sleep” value is recorded as “+53%”, the “effect on active wake” value is on record as −24% and the “effect on home cage activity” value is on record as −31%.
As for `COc1cc2nc([C@@H]3[C@@H](C)CCN3C(=O)c3cc(C)ccc3-n3cccn3)[nH]c2cc1OC` [Ex. 4.57], the results for the half-maximal inhibitory concentration (IC50) in [13] and in [14] were 59 nM and 250 nM, respectively.
For the compound `COc1ccc(-c2ccc(OC(F)(F)F)cc2)c(C(=O)N2CCC[C@@]2(C)c2nc3c(C)c(Cl)ccc3[nH]2)c1F` [Ex. 5.306], the values for the IC50 in data set [13] and in [14] were 33 nM and 69 nM, respectively.
Taken in the same sequence, the figures for `Cc1ccc(-c2ccc(C(F)(F)F)cc2)c(C(=O)N2CCC[C@@]2(C)c2nc3cc(C(F)(F)F)ccc3[nH]2)c1` [Ex. 5.183] were 339 nM and 1160 nM.
`Cc1nc(C(=O)N2CC[C@H](C)[C@H]2c2nc3c(C)cc(Cl)cc3[nH]2)c(-c2ccc(Cl)cc2)s1` [Ex. 4.94]: the IC50 in data set [13] is 3 nM; in data set [14] it was 543 nM.
Taken in the same sequence, the figures for `Cc1ccc(-n2nccn2)c(C(=O)N2CC[C@H](C)[C@H]2c2nc3c(C(F)(F)F)cccc3[nH]2)c1` [Ex. 4.34] were 37 nM and 1880 nM.
`CSc1cccc2nc([C@@H]3CCCN3C(=O)c3cc(Cl)ccc3-n3nccn3)[nH]c12` [Ex. 1.165]: the concentration for half-maximal inhibition (IC50) worked out at 76 nM in [13] and 9 nM in [14].
Taken in the same sequence, the figures for `C=C1C[C@@H](c2nc3cc(OC)ccc3[nH]2)N(C(=O)c2ccccc2-c2nc(C)no2)C1` [Ex. 6.20] were 1750 nM and 49 nM.
The like results for `CCn1c([C@]2(C)CCCN2C(=O)c2cc(C)ccc2-c2ccccc2F)nc2cc(C)c(C)cc21` [Ex. 7.45] were, in that order, 31 nM and 60 nM.
In the case of `Cc1ccc(-c2cccnc2)c(C(=O)N2CC[C@H](C)[C@H]2c2nc3cc(Cl)c(C)cc3[nH]2)c1` [Ex. 4.104], the IC50 turned out to be 14 nM in data set [13] and 1660 nM in [14].
Taken in the same sequence, the figures for `COc1cccc2[nH]c([C@@H]3[C@@H](C)CCN3C(=O)c3nc(C)sc3-c3cccc(Cl)c3)nc12` [Ex. 4.14] were 15 nM and 4030 nM.
On to `COc1cccc(C#Cc2ccccc2C(=O)N2CC[C@H](C)[C@H]2c2nc3cc(Cl)c(C)cc3[nH]2)c1` [Ex. 4.135], for which the IC50 was 4 nM in data set [13] and 203 nM in data set [14].
